Structures can show the parent of a compound that is named as a salt. Where two headings read alike, the source gives them in different places.
Legend:
human 5-HT1A receptors = target: T1, human 5-HT1A receptors (Homo sapiens, UniProt P08908); assay: Inhibition of 3H-5-CT binding to human 5-HT1A receptors
T1 construct: expressed in transfected cells; host or cells: HeLa cells (HA7)
T1 sequence (P08908 1-422): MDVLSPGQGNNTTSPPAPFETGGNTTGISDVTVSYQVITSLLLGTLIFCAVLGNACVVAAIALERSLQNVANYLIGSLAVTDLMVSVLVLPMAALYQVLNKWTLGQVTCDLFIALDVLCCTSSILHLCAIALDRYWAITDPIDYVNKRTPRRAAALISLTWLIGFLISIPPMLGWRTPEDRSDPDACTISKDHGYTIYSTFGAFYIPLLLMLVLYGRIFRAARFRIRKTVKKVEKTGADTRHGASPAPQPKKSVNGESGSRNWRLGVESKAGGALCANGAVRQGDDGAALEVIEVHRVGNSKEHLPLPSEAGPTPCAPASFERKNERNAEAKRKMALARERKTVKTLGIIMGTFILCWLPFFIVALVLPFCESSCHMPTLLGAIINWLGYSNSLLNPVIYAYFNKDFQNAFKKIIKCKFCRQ
Description: Inhibition of ^3H-5-CT Binding to Human 5-HT1A Receptors.
Human 5-HT1A receptors (40 μg of cell homogenate) were incubated for 15 minutes at 37° C. in 50 mM Tris buffer at pH 7.7 in the presence of ^3H-5-CT. Non-specific binding was determined by including 10 μM of metergoline. The reaction was terminated by rapid filtration through Unifilter GF/B filters on a Tomtec Cell Harvester. Filters were counted in a Packard Top Counter.

[1] = target: T2, 3H-5-HT uptake into whole rat brain synaptosomes (serotonin reuptake) (Rattus norvegicus, UniProt P31652); assay: Inhibition of 3H-5-HT uptake into rat brain synaptosomes; type: biochemical
T2 construct: from tissue; host or cells: whole rat brain synaptosomes
Description: Inhibition of ^3H-5-HT Uptake Into Rat Brain Synaptosomes.
Using this method, the ability of drugs to inhibit the accumulation of ^3H-5-HT into whole rat brain synaptosomes is determined in vitro.

[2] = target: T3, cloned 5-HT1A receptors stably expressed in transfected HeLa cells (HA7) (Homo sapiens, UniProt P08908); assay: 5-HT1A antagonistic activity: antagonism of 5-HT induced inhibition of forskolin induced cAMP accumulation; type: cell-based; conditions: HeLa cells (HA7) expressing cloned 5-HT1A receptors
T3 construct: expressed in transfected cells; host or cells: HeLa cells (HA7)
T3 sequence (P08908 1-422): T1 sequence (P08908 1-422)
Description: The assay was performed as a modification of the method described by Pauwels, P. J. et al, Biochem. Pharmacol. 1993, 45, 375.

[3] = cloned human 5-HT1A receptors in HeLa cells (HA7) homogenate, 15 minutes at 37° C., pH 7.7
[4] = 3H-5-HT accumulation into whole rat brain synaptosomes, in vitro, read-out: Inhibition of serotonin reuptake IC50

T2 sequence (P31652 whole entry): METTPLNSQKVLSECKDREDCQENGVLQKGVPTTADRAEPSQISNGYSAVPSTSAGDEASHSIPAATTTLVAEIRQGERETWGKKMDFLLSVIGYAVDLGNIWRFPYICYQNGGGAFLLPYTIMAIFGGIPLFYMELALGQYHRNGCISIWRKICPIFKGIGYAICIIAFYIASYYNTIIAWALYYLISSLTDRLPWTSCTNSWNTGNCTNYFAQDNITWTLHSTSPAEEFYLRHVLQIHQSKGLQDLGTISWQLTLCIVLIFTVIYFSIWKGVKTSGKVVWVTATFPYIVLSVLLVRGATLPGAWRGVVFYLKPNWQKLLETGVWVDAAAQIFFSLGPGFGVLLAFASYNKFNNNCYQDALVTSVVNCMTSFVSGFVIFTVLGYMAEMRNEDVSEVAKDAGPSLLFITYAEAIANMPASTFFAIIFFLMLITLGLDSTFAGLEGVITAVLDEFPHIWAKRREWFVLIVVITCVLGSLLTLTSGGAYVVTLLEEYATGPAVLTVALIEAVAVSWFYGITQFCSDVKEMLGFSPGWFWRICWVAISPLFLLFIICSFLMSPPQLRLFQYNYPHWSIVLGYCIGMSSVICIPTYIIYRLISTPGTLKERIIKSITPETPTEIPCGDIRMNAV

SMILES	melting point [°C]	IC50 [2] [µM]	IC50 (human 5-HT1A receptors; [3]) [µM]	IC50 [1, 4] [µM]	further results
Clc1ccc2occ(CCN3CC=C(c4cccc5c4OCC5)CC3)c2c1 (as salt: oxalate) [Compound 3g, 1-[2-(5-chlorobenzofuran-3-yl)ethyl]-4-[2,3-dihydrobenzofuran-7-yl]-1,2,3,6-tetrahydropyridine]	187 to 202				
Fc1ccc2occ(CCN3CC=C(c4cccc5ccoc45)CC3)c2c1 (as salt: oxalate) [Compound 3h, 4-[Benzofuran-7-yl]-1-[2-(5-fluorobenzofuran-3-yl)ethyl]-1,2,3,6-tetrahydropyridine]	201 to 211				
c1cc2c(c(N3CCN(CCc4coc5ccccc45)CC3)c1)OCCO2 [Compound 3f, 1-[1,4-Benzodioxan-5-yl]-4-[2-(benzofuran-3-yl)ethyl]piperazine]		0.29			IC50 (human 5-HT1A receptors): 0.0083 µM; IC50 [1]: 0.012 µM
c1ccc2c(c1)CCC2CCCCN1CCN(c2cccc3c2OCCO3)CC1 (stereo not drawn) [Compound 1c, 1-[1,4-Benzodioxan-5-yl]-4-[1-(indan-1-yl)-4-butyl]piperazine]			0.0025	0.13	
C(=CC1CCc2ccccc21)CCN1CCN(c2cccc3c2OCCO3)CC1 (stereo not drawn) [Compound 1b, 1-[1,4-Benzodioxan-5-yl]-4-[1-(indan-1-yl)-1-buten-4-yl]piperazine]			0.0061		
Cc1cccc2occ(CCCN3CCN(c4cccc5c4OCCO5)CC3)c12 [Compound 5a, 1-[1,4-Benzodioxan-5-yl]-4-[3-(4-methylbenzofuran-3-yl)-1-propyl]piperazine]		0.39	0.0029	0.015	
c1ccc2c(c1)CCC2CCCCN1CCN(c2cccc3c2OCCO3)CC1 (stereo not drawn) (as salt: oxalate) [Compound 1c, 1-[1,4-Benzodioxan-5-yl]-4-[1-(indan-1-yl)-4-butyl]piperazine]	154 to 155				
Fc1ccc2occ(CCN3CCN(c4cccc5ccoc45)CC3)c2c1 [Compound 3a, 1-[Benzofuran-7-yl]-4-[2-(5-fluorobenzofuran-3-yl)ethyl]piperazine]			0.029	0.17	
c1cc2c(c(N3CCN(CCc4coc5ccccc45)CC3)c1)OCCO2 (as salt: oxalate) [Compound 3f, 1-[1,4-Benzodioxan-5-yl]-4-[2-(benzofuran-3-yl)ethyl]piperazine]	206 to 208				
C(=CC1CCc2ccccc21)CCN1CCN(c2cccc3c2OCCO3)CC1 (stereo not drawn) (as salt: oxalate) [Compound 1b, 1-[1,4-Benzodioxan-5-yl]-4-[1-(indan-1-yl)-1-buten-4-yl]piperazine]	154 to 157				
Clc1ccc2occ(CCN3CC=C(c4cccc5c4OCC5)CC3)c2c1 [Compound 3g, 1-[2-(5-chlorobenzofuran-3-yl)ethyl]-4-[2,3-dihydrobenzofuran-7-yl]-1,2,3,6-tetrahydropyridine]				0.16	IC50 (human 5-HT1A receptors): 0.024 µM
Fc1ccc2occ(CCN3CC=C(c4cccc5ccoc45)CC3)c2c1 [Compound 3h, 4-[Benzofuran-7-yl]-1-[2-(5-fluorobenzofuran-3-yl)ethyl]-1,2,3,6-tetrahydropyridine]					IC50 (human 5-HT1A receptors): 0.011 µM; IC50 [1]: 0.043 µM
C1=CC(CCCCN2CCN(c3cccc4c3OCCO4)CC2)c2ccccc21 (stereo not drawn) [Compound 1a, 1-[1,4-Benzodioxan-5-yl]-4-[1-(inden-1-yl)-4-butyl]piperazine]		0.17	0.0017	0.061	

Second part, led by results:

melting point [°C]	IC50 [2] [µM]	IC50 (human 5-HT1A receptors; [3]) [µM]	IC50 [1, 4] [µM]	SMILES	further results
	0.074	0.0075	0.24	Fc1ccc2c(CCCN3CCN(c4cccc5c4OCCO5)CC3)noc2c1 [Compound 3b, 1-[1,4-Benzodioxan-5-yl]-4-[3-(6-fluorobenzo[1,2]isoxazol-3-yl)-1-propyl]piperazine]	
	0.55	0.018	0.034	Clc1ccc2occ(CCN3CCN(c4cccc5c4OCCO5)CC3)c2c1 [Compound 3d, 1-[1,4-Benzodioxan-5-yl]-4-[2-(5-chlorobenzofuran-3-yl)ethyl]piperazine]	
	0.1	0.014	0.00069	Fc1ccc2occ(CCN3CCN(c4cccc5c4OCCO5)CC3)c2c1 [Compound 2a, 1-[1,4-Benzodioxan-5-yl]-4-[2-(5-fluorobenzofuran-3-yl)ethyl]piperazine]	
206 to 208				Clc1ccc2occ(CCN3CCN(c4cccc5c4OCCO5)CC3)c2c1 (as salt: oxalate) [Compound 3d, 1-[1,4-Benzodioxan-5-yl]-4-[2-(5-chlorobenzofuran-3-yl)ethyl]piperazine]	
190 to 192				Clc1cccc2c(CCN3CCN(c4cccc5c4OCCO5)CC3)coc12 (as salt: oxalate) [Compound 3i, 1-[1,4-Benzodioxan-5-yl]-4-[2-(7-chlorobenzofuran-3-yl)ethyl]piperazine]	
174 to 176				Cc1ccc2c(CCN3CCN(c4cccc5c4OCCO5)CC3)coc2c1 (as salt: oxalate) [Compound 3e, 1-[1,4-Benzodioxan-5-yl]-4-[2-(6-methylbenzofuran-3-yl)ethyl]piperazine]	
187 to 189				Fc1ccc2c(CCCN3CCN(c4cccc5c4OCCO5)CC3)noc2c1 (as salt: fumarate) [Compound 3b, 1-[1,4-Benzodioxan-5-yl]-4-[3-(6-fluorobenzo[1,2]isoxazol-3-yl)-1-propyl]piperazine]	
	0.26		0.032	Cc1ccc(Cl)c2occ(CCCN3CCN(c4cccc5c4OCCO5)CC3)c12 [Compound 4a, 1-[1,4-Benzodioxan-5-yl]-4-[3-(7-chloro-4-methylbenzofuran-3-yl)-1-propyl]piperazine]	
204 to 206				Cc1cccc2occ(CCN3CCN(c4cccc5c4OCCO5)CC3)c12 (as salt: oxalate) [Compound 3c, 1-[1,4-Benzodioxan-5-yl]-4-[2-(4-methylbenzofuran-3-yl)ethyl]piperazine]	
111 to 113				Clc1ccc2c(CCN3CCN(c4cccc5c4OCCO5)CC3)n[nH]c2c1 (as salt: oxalate) [Compound 2b, 1-[1,4-Benzodioxan-5-yl]-4-[2-(6-chloroindazol-3-yl)ethyl]piperazine]	
		0.0093	0.16	Clc1ccc2c(CCN3CCN(c4cccc5c4OCCO5)CC3)n[nH]c2c1 [Compound 2b, 1-[1,4-Benzodioxan-5-yl]-4-[2-(6-chloroindazol-3-yl)ethyl]piperazine]	
	2.3	0.019	0.011	Cc1cccc2occ(CCN3CCN(c4cccc5c4OCCO5)CC3)c12 [Compound 3c, 1-[1,4-Benzodioxan-5-yl]-4-[2-(4-methylbenzofuran-3-yl)ethyl]piperazine]	
	1.4	0.0088	0.058	Cc1ccc2c(CCN3CCN(c4cccc5c4OCCO5)CC3)coc2c1 [Compound 3e, 1-[1,4-Benzodioxan-5-yl]-4-[2-(6-methylbenzofuran-3-yl)ethyl]piperazine]	
	1.5	0.0021	0.0015	Clc1cccc2c(CCN3CCN(c4cccc5c4OCCO5)CC3)coc12 [Compound 3i, 1-[1,4-Benzodioxan-5-yl]-4-[2-(7-chlorobenzofuran-3-yl)ethyl]piperazine]	
